Among the data in PubChem BioAssay (NCI) are GI50 and TGI values, retold here.

As usually defined, the GI50 is the concentration giving 50% growth inhibition. What is called TGI is the concentration giving total growth inhibition. A lower TGI goes with greater sensitivity of the cells.

Where “and” joins values, the source holds several entries; their conditions need not be identical. Equal values may be shown once.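 These data come from cells grown in 96-well plates and exposed to compound for 48 hours at five concentrations. GI50: concentration for 50% inhibition of growth. Definition used: TGI = concentration required for complete inhibition of growth.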

Holding throughout (assay): DTP human tumour cell line panel, 48 h
Assay [1] deals with A498 renal.
For assay [2], the system named is COLO 205 colon.
The subject of assay [3] is HCT-15 colon.
For assay [4], the system named is HOP-62 NSCLC.
The subject of assay [5] is IGROV1 ovarian.
For assay [6], the system named is NCI-H226 lung.
Assay [7] relates to NCI-H522 lung.
Assay [8] has as its system SNB-19 CNS.
For assay [9], the system named is SW-620 colon.
Assay [10] has as its system T-47D breast.

With `CN(C)CC/C=C1\c2ccccc2Sc2ccc(Cl)cc21`, the GI50 in [1] is 3020 nM; in [2], 1540 nM; in assay [3] it was 3790 nM; in [4] it was 1940 nM; in [5], 3240 nM; in assay [6] it was 2450 nM. The GI50 was 1670 nM in [7], 2620 nM in assay [8], 2180 nM in assay [9] and 1460 nM in assay [10]. In addition, the TGI is 14100 nM and 28000 nM in assay [1]; 14000 nM and 30600 nM in assay [3]; 5440 nM and 28000 nM in assay [4]; 11300 nM and 26300 nM in assay [5]; 9110 nM and 38000 nM in [6]; 3230 nM and 29100 nM in assay [7]. Also, the TGI in [8] was 10600 nM and 29900 nM; in assay [9], 5400 nM and 35400 nM.

Take `O=c1[nH]cnc2c(C3OC(CO)C(O)C3O)[nH]nc12` (centres undefined): the TGI in [1], in assay [2], in [3], in [4], in [5] and in assay [6] was greater than 100000 nM each time. In addition, the TGI was 42700 nM in assay [7], greater than 100000 nM in assay [8], greater than 100000 nM in assay [9] and greater than 100000 nM in [10].

For the compound `O=C1C=C(Nc2ccccc2)c2ncccc2C1=O`, the GI50 in assay [1] is 1640 nM; in assay [2] it was 1950 nM; in assay [3] it was 321 nM; in assay [4], 376 nM; in assay [5], 904 nM; in assay [6], 1710 nM. For the same compound, the GI50 is 704 nM in [7], 411 nM in assay [8], 340 nM in assay [9] and 1270 nM in assay [10]. Also, the TGI in assay [1] came to 3000 nM; in [2], 3920 nM; in assay [3] it was 1280 nM; in [4], 1490 nM; in assay [5], 2580 nM; in [6], 3610 nM. Moreover, the TGI in assay [7] stood at 2440 nM; in assay [8] it was 1430 nM; in [9], 1280 nM; in assay [10], 3580 nM.

On to `O=C(O)C1C2C=CC(O2)C1C(=O)Nc1ccccc1` (centres undefined), for which the TGI in [1], in assay [2], in [3], in assay [4], in assay [5] and in assay [6] was greater than 100000 nM each time. Besides, the TGI in assay [7], in assay [8], in assay [9] and in assay [10] was greater than 100000 nM throughout.

`C#C[C@@]1(O)[C@@H](CO)O[C@@H](n2cc(Cl)c3c(N)ncnc32)[C@@H]1O`: the GI50 is 274 nM in assay [1]; 106 nM in [2]; 143 nM in [3]; 254 nM in assay [4]; 145 nM in assay [5]; 508 nM in [6]. The GI50 in [7] is 134 nM; in assay [8], 21 nM; in assay [9], 70.9 nM; in [10] it was 57.3 nM. Further, the TGI in [1] is 659 nM; in assay [2] it was 379 nM; in assay [3], greater than 100000 nM; in assay [4], 1970 nM; in assay [5] it was 475 nM; in assay [7], 455 nM. In addition, the TGI in [8] amounted to 294 nM; in assay [10], 489 nM.

Turning to `CC(=O)[O-].CC(=O)[O-].[Mn+2].c1ccc(/C(=N\Nc2ccccn2)c2ccccn2)cc1`, the TGI stood at 30600 nM in assay [1]; 16100 nM in assay [3]; 5690 nM in assay [4]; 3590 nM in assay [5]; 3000 nM in assay [6]; 277 nM in assay [7]. The total growth inhibition concentration (TGI) in assay [8] was 16700 nM; in assay [9] it was 14500 nM; in assay [10] it was 12000 nM. Moreover, the GI50 is 43.2 nM in assay [3]; 27.1 nM and 141 nM in [5]; 28.9 nM in [7]; 53.5 nM in assay [9].

As to `O=C1C(=O)c2cc([N+](=O)[O-])ccc2-c2ccccc21`, the GI50 in assay [1] is 12500 nM; in assay [2] it was 1940 nM; in assay [3], 1800 nM; in assay [5], 1900 nM; in [6], 1780 nM; in assay [7], 1280 nM. In addition, the results for the GI50 in assay [8], in assay [9] and in assay [10] were 1600 nM, 1540 nM and 1760 nM, respectively. The TGI in assay [1] is 25100 nM; in assay [2], 3490 nM; in assay [3] it was 3590 nM; in [5], 3540 nM; in assay [6] it was 3270 nM; in assay [7], 2680 nM. Moreover, the TGI in assay [8] worked out at 3000 nM; in [9], 2980 nM; in assay [10] it was 3770 nM.

As to `Cc1ccc(-c2csc(N(C(=O)N3CCN(c4cc5c(cc4F)c(=O)c(C(=O)O)cn5C4CC4)CC3)c3ccccc3)n2)cc1`, the GI50 in assay [1] is 36.3 nM; in assay [4], 389 nM; in [5], 338 nM; in [6] it was 338 nM; in assay [7], 292 nM; in assay [8] it was 383 nM. For the same compound, in assay [10], the GI50 is 381 nM. For the same compound, the TGI in assay [1] is 443 nM; in assay [4], greater than 46300 nM; in assay [5] it was greater than 100000 nM; in assay [6] it was greater than 100000 nM; in assay [7], greater than 100000 nM; in assay [8], greater than 60000 nM. This compound came in with a TGI in assay [10] greater than 100000 nM.

For `COc1ccc(C(=S)c2cc(OC)c(OC)c(OC)c2)cc1OC(=O)CCl`, the GI50 in assay [1] was 179 nM; in assay [2] it was 1300 nM; in assay [3], less than 10 nM; in assay [4] it was 61.4 nM; in [5], 49.9 nM; in assay [6], 2770 nM. Besides, the GI50 was less than 20.7 nM in assay [8], less than 14.6 nM in assay [9] and 22100 nM in assay [10]. The TGI in [1] was 2500 nM; in assay [2], 17000 nM; in [3], greater than 100000 nM; in [4], greater than 100000 nM; in assay [5], greater than 100000 nM; in [6], greater than 100000 nM. The TGI was greater than 100000 nM in [8], greater than 100000 nM in [9] and 79900 nM in assay [10].
